# Measurements as given in patent US9540379B2 (priority 2011, dated 2017).
# Target: PDE10A (Homo sapiens (Human), UniProt Q9Y233)
# Assay: biochemical
# Method: Inhibition of Recombinant PDE10A (Expressed in Baculovirus/SF21 Cells)
# PDE activity was determined in a one step procedure in microtiter plates. The reaction mixture of 100 μl contained 50 mM Tris-HCl/5 mM MgCl2 buffer (pH=7.4, Sigma, Deisenhofen, Germany; Merck, Darmstadt, Germany) 0.1 μM [3H]-cAMP (PerkinElmer, Shelton, USA) and the enzyme. Non-specific enzyme activity was determined without the enzyme.
# The reaction was initiated by addition of the substrate solution and was carried out at 37° C. for 30 minutes. Enzymatic activity then was stopped by addition of 25 μl Ysi-SPA-beads (PerkinElmer, Shelton, USA). One h later the mixture was measured in a liquid scintillation counter for microtiter plates (Microbeta Trilux). The Biomek 2000 (Beckman) was used routinely for pipetting of the incubation mixture. […] For determination of IC50 values the Hill-plot, 2-parameter-model, was used.
# Chain of PDE10A (Q9Y233 other isoform, or with tags, fused parts or gaps): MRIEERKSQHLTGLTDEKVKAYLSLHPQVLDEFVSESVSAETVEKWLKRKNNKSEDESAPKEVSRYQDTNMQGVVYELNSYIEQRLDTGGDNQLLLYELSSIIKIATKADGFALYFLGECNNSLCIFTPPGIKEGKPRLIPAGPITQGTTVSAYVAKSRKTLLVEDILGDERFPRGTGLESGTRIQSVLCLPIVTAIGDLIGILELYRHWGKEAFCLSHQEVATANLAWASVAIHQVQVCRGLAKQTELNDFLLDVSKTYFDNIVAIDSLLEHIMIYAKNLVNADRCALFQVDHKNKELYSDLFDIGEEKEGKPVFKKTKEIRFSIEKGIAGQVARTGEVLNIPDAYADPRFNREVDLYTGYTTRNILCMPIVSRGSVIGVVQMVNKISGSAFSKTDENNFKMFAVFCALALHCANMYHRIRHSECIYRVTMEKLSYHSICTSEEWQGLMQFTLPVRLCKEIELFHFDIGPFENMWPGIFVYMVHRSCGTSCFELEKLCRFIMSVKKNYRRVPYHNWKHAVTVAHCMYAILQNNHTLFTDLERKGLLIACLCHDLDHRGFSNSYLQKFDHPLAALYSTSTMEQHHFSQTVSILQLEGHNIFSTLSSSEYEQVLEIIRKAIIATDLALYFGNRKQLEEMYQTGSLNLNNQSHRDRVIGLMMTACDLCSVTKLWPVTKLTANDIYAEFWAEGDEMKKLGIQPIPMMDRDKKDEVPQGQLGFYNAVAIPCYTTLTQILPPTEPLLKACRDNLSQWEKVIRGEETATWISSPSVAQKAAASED
row,SMILES,IC50 [nM]
1,"Cc1nc2cc(Cl)ccc2n2c(-c3cc(OCCCC(F)(F)F)ccc3Cl)nnc12 [Example 27, 7-Chloro-1-[2-chloro-5-(4,4,4-trifluoro-butoxy)-phenyl]-4-methyl-[1,2,4]triazolo[4,3-a]quinoxaline]",> 1000
2,"Cc1nc2cc(C(F)(F)F)ccc2n2c(-c3c(F)cccc3F)nnc12 [Example 70, 1-(2,6-Difluoro-phenyl)-4-methyl-7-trifluoromethyl-[1,2,4]triazolo[4,3-a]quinoxaline]",77
3,"CSc1ncccc1-c1nnc2c(C)nc3cc(C(F)(F)F)ccc3n12 [Example 69, 4-Methyl-1-(2-methylsulfanyl-pyridin-3-yl)-7-trifluoromethyl-[1,2,4]triazolo[4,3-a]quinoxaline]",> 1000
4,"Cc1nc2ccccc2n2c(-c3cc(OCC(O)c4ccccn4)ccc3Cl)nnc12 (stereo not drawn) [Example 105, 2-[4-Chloro-3-(4-methyl-[1,2,4]triazolo[4,3-a]quinoxalin-1-yl)-phenoxy]-1-pyridin-2-yl-ethanol]",> 1000
5,"Cc1nc2ccccc2n2c(-c3cc(OCCN4CCN(C)CC4)ccc3Cl)nnc12 [Example 94, 1-{2-Chloro-5-[2-(4-methyl-piperazin-1-yl)-ethoxy]-phenyl}-4-methyl-[1,2,4]triazolo[4,3-a]quinoxaline]",> 1000
6,"COCCOc1ccc(F)c(-c2nnc3cnc4cc(Cl)ccc4n23)c1 [Example 29, 7-Chloro-1-[2-fluoro-5-(2-methoxy-ethoxy)-phenyl]-[1,2,4]triazolo[4,3-a]quinoxaline]",> 1000
7,"COc1ccc2c(c1)nc(C)c1nnc(-c3c(F)cccc3F)n12 [Example 75, 1-(2,6-Difluoro-phenyl)-7-methoxy-4-methyl-[1,2,4]triazolo[4,3-a]quinoxaline]",334
8,"Cc1nc2cc(OCc3ccc(F)cc3)ccc2n2c(-c3ccccc3Cl)nnc12 [Example 77, 1-(2-Chloro-phenyl)-7-(4-fluoro-benzyloxy)-4-methyl-[1,2,4]triazolo[4,3-a]quinoxaline]",118
9,"Cc1nc2ccccc2n2c(-c3cc(OCC(F)c4ccccn4)ccc3Cl)nnc12 (stereo not drawn) [Example 106, 1-[2-Chloro-5-(2-fluoro-2-pyridin-2-yl-ethoxy)-phenyl]-4-methyl-[1,2,4]triazolo[4,3-a]quinoxaline]",963
